Measurements from US20030091975A1, “Multiple determinants for metabolic phenotypes” (priority 2001, published 2003).
Read-outs that look alike come from different tables or passages of the source. Marks after values point to notes of the source that are not given here.

What was measured:
[1] = cited from earlier work
[2] = 2 mg/kg, cited from earlier work
μ-opiod receptor = μ-opiod receptor (Homo sapiens, UniProt P35372); details: relative to morphine; cited from earlier work
[3] = cited from earlier work; remark: listed apart in the source
1,7-DMU-Ab = test: Competitive antigen ELISA, antibody specificity of 1,7-DMU-Ab; format: binding, rabbit; details: ideal antibody specificity result hypothesized; 0 = no inhibition or no higher than 40% at 5×10^−3 M
Experimental: (§1) BSA, antibodies, Tween™ 20 and horse radish peroxidase are added to buffers and water just prior to use. Urine samples are usually collected four hours after drinking a cup of coffee (instant or brewed with approximately 100 mg of caffeine per cup) and stored at −20° C. as 1-mL aliquots in 1.5-mL microtubes. For the ELISA, the urine samples are diluted with isotonic sodium phosphate buffer, pH 7.5 (310 mosM) to give concentrations of caffeine, 1.7-DMX and 1,7-DMU no higher than 3×10^−6 M in the microtiter plate wells. Wells of the ELISA plate are washed with a Nunc-Immuno wash 12 washer. Sixteen milliliters of a solution of 6.6 μg ml^−1 of isolated IgG antibodies is prepared in a 100 mM sodium carbonate buffer, pH 9.6, and 150 μL of this solution is pipetted in each well of a microtiter plate using a eight channel pipet (Brinkmann Transferpette™-8 50-200 μL) and 200 μL Flex tips from Brinkmann). After coating the wells with antibodies at 4° C. for 20 hours, the wells are washed 3 times with the isotonic sodium phosphate buffer containing 0.05% Tween™ 20 (IPBT) and properly drained by inverting the plate and absorbing the liquid on to a piece of paper towel. Thirty milliliters of a solution of a IPBT solution containing 1% BSA is prepared and 150 μL of this solution is pipetted in each well using a eight channel pipet (Brinkmann Transferpette ™-8 50-200 μL) and 200 μL yellow tips (Sarstedt yellow tips for P200 Gilson Pipetman). After 3 hours at room temperature, the wells are washed 3 times with IPBT solution and drained. Samples of 400 μL for determination of caffeine, 1,7-DMX and 1,7-DMU are prepared in 1.5-mL microtubes using Sarstedt yellow tips and a P200 Gilson Pipetman. Then, 200 μL of each sample are pipetted in duplicate in a Falcon 96-well microtest tissue culture plate according to the pattern shown in FIG. 22, using Sarstedt yellow tips and a P200 Gilson Pipetman. Using an eight channel pipet (Brinkmann Transferpette™-8 50-200 μL) and changing the tips of the eight channel pipet (200μL Flex tips from Brinkmann) at each row, 150 μL of samples are transferred in the corresponding wells of a 96-well ELISA microtiter plate coated with antibodies. After the addition of the samples, the microtiter plates are covered and left standing at room temperature for 2 h. While the plate is left standing the substrate buffer without the hydrogen peroxide and o-phenylenediamine hydrochloride is prepared (25 mM citric acid and 50 mM sodium phosphate dibasic buffer, pH 5.0). The microtiter plate is washed 3 times with the IPBT solution and 3 times with a 0.05% Tween™ 20 solution and drained. Then, 50 μL of hydrogen peroxide and 40 mg of o-phenylenediamine are added to the substrate buffer. One hundred fifty microliters (150 μL) of the substrate buffer solution is then added to each well using a eight channel pipet (Brinkmann Transferpette™-8 50-200 μL) and 200 μL Flex tips (Brinkmann). The microtiter plate is covered and shaken for 25-30 min at room temperature and the enzymatic reaction is stopped by adding 50 μL/well of a 2.5 N HCl solution using an eight channel pipet (Brinkmann Transferpette™-8 50-200 μL) and 200L Flex tips (Brinkmann).

1X-Ab = test: Competitive antigen ELISA, cross-reactivity of 1X-Ab; format: binding, rabbit; details: 0 = absence of inhibition or inhibition no higher than 40% at the highest concentration tested (5×10^−3 M)
Experimental: (§2) Buffers and water without additives are filtered through millipore filters and kept for 1 week. BSA, antibodies, Tween™ 20 and horse radish peroxidase conjugates are added to these buffers and water just prior to use. Urine samples are usually collected 4 hours after drinking a cup of coffee (instant or brewed with approximately 100 mg of caffeine per cup) and stored at −80° C. The urine samples are diluted 10 times with sodium phosphate buffer (620 mosm, pH 7.50) and are subsequently diluted with water to give concentrations of AAMU and 1X no higher than 3×10^−6 M in the ELISA. All the pipettings are done with an eight-channel pipette, except those of the antibody and sample solutions. Starting with the last well, 100 μL of a carbonate buffer (100 mM, pH 9.6) containing 2.5 μg mL-1 antibodies are added to each well. After 90 min. at room temperature, the wells are washed three times with […] of TPB: isotonic sodium phosphate buffer (310 mosm, pH 7.50) containing 0.05% Tween™ 20.
(§3) After the initial wash, unoccupied sites are blocked by incubation for 90 min. at room temperature with 100 μL TBP containing 3% BSA. The wells are washed four times with 100 μL TPB. […] The microplate is gently shaken with an orbital shaker at room temperature for 3-4 hours. The wells are washed three times with 100 μL TPB containing 1% BSA and three times with water containing 0.05% Tween ™ 20. To the washed plate is added 150 μL of a substrate buffer composed of citric acid (25 mM) and sodium phosphate dibasic buffer (50 mM, pH 5.0) containing 0.06% hydrogen peroxide and 0.04% o-phenylenediamine hydrochloride.
(§4) Buffers and water without additives were filtered through millipore filters and kept for 1 week. BSA, antibodies, Tween ™ 20 and horse radish peroxidase conjugates were added to these buffers and water just prior to use. Urine samples were usually collected 4 hours after drinking a cup of coffee (instant or brewed with approximately 100 mg of caffeine per cup) and stored at 80° C. They were diluted 10 times with sodium phosphate buffer (620 mosm, pH 7.50) and were subsequently diluted with water to give concentrations of AAMU and 1X no higher than 3×10^−6 M in the ELISA. All the pipettings were done with an eight-channel pipette, except those of the antibody and sample solutions. Starting with the last well, 100 μL of a carbonate buffer (100 mM, pH 9.6) containing 2.5 μg mL^−1 antibodies was pipetted. After 90 min. at room temperature, the wells were washed three times with 100 μL of TPB: isotonic sodium phosphate buffer (310 mosm, pH 7.50) containing 0.05% Tween™ 20.
(§5) After the initial wash, unoccupied sites were blocked by incubation for 90 min. at room temperature with 100 μL TBP containing 3% BSA. The wells were washed four times with 100 μL TPB. […] The microplate was gently shaken with an orbital shaker at room temperature for 3-4 hours. The wells were washed three times with 100 μL with TPB containing 1% BSA and three times with water containing 0.05% Tween™ 20. To the washed plate was added 150 μL of a substrate buffer composed of citric acid (25 mM) and sodium phosphate dibasic buffer (50 mM, pH 5.0) containing 0.06% hydrogen peroxide and 0.04% o-phenylenediamine hydrochloride. After 20 min. at room temperature with shaking, the reaction was stopped with 50 μL of 2.5 N HCl.
(§6) The cross reactivities of AAMU-Ab and 1X-Ab were tested using a wide variety of caffeine metabolites and structural analogs (Table 5 below).

Caffeine-Ab = test: Competitive antigen ELISA, antibody specificity of caffeine-Ab; format: binding, rabbit; details: ideal antibody specificity result hypothesized; 0 = no inhibition or no higher than 40% at 5×10^−3 M
Experimental: as §1

1,7-DMX-Ab = test: Competitive antigen ELISA, antibody specificity of 1,7-DMX-Ab; format: binding, rabbit; details: ideal antibody specificity result hypothesized; 0 = no inhibition or no higher than 40% at 5×10^−3 M
Experimental: as §1

AAMU-Ab = test: Competitive antigen ELISA, cross-reactivity of AAMU-Ab; format: binding, rabbit; details: 0 = absence of inhibition or inhibition no higher than 40% at the highest concentration tested (5×10^−3 M)
Experimental: as §2, §3, §4, §5, §6

[4] = cited from earlier work; remark: listed apart in the source

μ-opiod receptor, sequence (P35372 whole entry): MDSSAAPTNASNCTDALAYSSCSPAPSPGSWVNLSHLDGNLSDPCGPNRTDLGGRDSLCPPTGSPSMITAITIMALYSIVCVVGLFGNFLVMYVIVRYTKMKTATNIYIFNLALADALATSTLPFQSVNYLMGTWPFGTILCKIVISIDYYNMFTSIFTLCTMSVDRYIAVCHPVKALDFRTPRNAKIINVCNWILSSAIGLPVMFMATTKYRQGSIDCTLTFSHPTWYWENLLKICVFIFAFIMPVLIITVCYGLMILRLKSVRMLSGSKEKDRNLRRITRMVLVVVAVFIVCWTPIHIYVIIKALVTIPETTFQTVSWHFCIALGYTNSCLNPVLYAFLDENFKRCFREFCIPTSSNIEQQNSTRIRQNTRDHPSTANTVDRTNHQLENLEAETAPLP

SMILES	% Cross-reaction 1,7-DMU-Ab (1,7-DMU-Ab)	% Cross-Reaction 1X-Ab (1X-Ab)	% Cross-reaction Caffeine-Ab (Caffeine-Ab)	% Cross-reaction 1,7-DMX-Ab (1,7-DMX-Ab)	% Cross-Reaction AAMU-Ab (AAMU-Ab)	also measured
Nc1ccc(S(=O)(=O)c2ccc(N)cc2)cc1 [dapsone]	–	–	–	–	–	adverse reactions to dapsone ([1]; fast acetylators): 17%; adverse reactions to dapsone ([1]; slow acetylators): 46%
COc1cccc(C2(O)CCCCC2CN(C)C)c1 (centres unmarked) [Tramadol]	–	–	–	–	–	side effects vs placebo ([2]; extensive metabolizers): caused side effects significantly more frequently than placebo; analgesic effect ([2]; extensive vs poor metabolizers): better analgesic in extensive metabolizers as compared to poor metabolizers; affinity for the μ-opiod receptor, factor weaker than morphine (μ-opiod receptor): ~6000
COc1ccc2c(c1)[C@]13CCCC[C@@H]1[C@H](C2)N(C)CC3 [Dextromethorphan]	–	–	–	–	–	mean performance +/−SE ([3]; extensive metabolizers (EMs)): 95+/−0.5%; mean performance +/−SE ([3]; poor metabolizers (PMs), p<0.05): 86+/−6%
O=c1[nH]c(=O)c2[nH]cnc2[nH]1 [Xanthine]	0%	0%	0%	0%	0^a %	–
CN(C)CCN1C(=O)c2cccc3cc(N)cc(c23)C1=O [Amonafide]	–	–	–	–	–	deaths ([4]; 300 mg/m^2, extremely fast acetylators): two women (both oriental) died from severe myelosuppression; response rate ([4]; individuals considered to be properly dosed): 30-50%; overall response rate ([4]; phase II trial, standard 300 mg/m^2 dose for all individuals): 18%
O=c1[nH]c(=O)c2[nH]c(=O)[nH]c2[nH]1 [Uric acid]	0%	0%	0%	0%	0%	–
